Results from article PMC10511319, “Bacterial pathogens deliver water- and solute-permeable channels to plant cells” (Nature, 2023).

Assays:
[1] = target: T1, DspE (Erwinia amylovora, UniProt O54581); format: cell-based; details: current at 50 mV test pulse; ND96 saline, pH 7.5; channel block
T1 construct: full-length untagged ORF in pGH19, cRNA-injected Xenopus laevis oocytes; strain of oocyte clone not restated

[2] = target: T2, AvrE (Pseudomonas syringae group genomosp. 3, UniProt Q887C9); experiment: two-electrode voltage clamp, Xenopus oocytes; format: cell-based; details: current at 50 mV test pulse; ND96 saline, pH 7.5; channel block
T2 construct: full-length untagged ORF in pGH19, cRNA-injected Xenopus laevis oocytes

[3] = target: T3, DspE (MBP–DspE) (Erwinia amylovora, UniProt O54581); experiment: liposome carboxyfluorescein release; format: biochemical; details: soybean liposomes; 0.05–0.15 µM DspE; 20 mM HEPES, 300 mM NaCl, pH 8.0; channel block
T3 construct: full-length DspE fused to MBP-His8-PPX-Flag; made in E. coli BL21(DE3)

[4] = target: T2, AvrE; experiment: oocyte fluorescent dye uptake; format: cell-based; details: 5 µg/ml fluorescein in ND96 saline; 20 ng avrE cRNA; permeation through channel

T1 sequence (O54581 whole entry): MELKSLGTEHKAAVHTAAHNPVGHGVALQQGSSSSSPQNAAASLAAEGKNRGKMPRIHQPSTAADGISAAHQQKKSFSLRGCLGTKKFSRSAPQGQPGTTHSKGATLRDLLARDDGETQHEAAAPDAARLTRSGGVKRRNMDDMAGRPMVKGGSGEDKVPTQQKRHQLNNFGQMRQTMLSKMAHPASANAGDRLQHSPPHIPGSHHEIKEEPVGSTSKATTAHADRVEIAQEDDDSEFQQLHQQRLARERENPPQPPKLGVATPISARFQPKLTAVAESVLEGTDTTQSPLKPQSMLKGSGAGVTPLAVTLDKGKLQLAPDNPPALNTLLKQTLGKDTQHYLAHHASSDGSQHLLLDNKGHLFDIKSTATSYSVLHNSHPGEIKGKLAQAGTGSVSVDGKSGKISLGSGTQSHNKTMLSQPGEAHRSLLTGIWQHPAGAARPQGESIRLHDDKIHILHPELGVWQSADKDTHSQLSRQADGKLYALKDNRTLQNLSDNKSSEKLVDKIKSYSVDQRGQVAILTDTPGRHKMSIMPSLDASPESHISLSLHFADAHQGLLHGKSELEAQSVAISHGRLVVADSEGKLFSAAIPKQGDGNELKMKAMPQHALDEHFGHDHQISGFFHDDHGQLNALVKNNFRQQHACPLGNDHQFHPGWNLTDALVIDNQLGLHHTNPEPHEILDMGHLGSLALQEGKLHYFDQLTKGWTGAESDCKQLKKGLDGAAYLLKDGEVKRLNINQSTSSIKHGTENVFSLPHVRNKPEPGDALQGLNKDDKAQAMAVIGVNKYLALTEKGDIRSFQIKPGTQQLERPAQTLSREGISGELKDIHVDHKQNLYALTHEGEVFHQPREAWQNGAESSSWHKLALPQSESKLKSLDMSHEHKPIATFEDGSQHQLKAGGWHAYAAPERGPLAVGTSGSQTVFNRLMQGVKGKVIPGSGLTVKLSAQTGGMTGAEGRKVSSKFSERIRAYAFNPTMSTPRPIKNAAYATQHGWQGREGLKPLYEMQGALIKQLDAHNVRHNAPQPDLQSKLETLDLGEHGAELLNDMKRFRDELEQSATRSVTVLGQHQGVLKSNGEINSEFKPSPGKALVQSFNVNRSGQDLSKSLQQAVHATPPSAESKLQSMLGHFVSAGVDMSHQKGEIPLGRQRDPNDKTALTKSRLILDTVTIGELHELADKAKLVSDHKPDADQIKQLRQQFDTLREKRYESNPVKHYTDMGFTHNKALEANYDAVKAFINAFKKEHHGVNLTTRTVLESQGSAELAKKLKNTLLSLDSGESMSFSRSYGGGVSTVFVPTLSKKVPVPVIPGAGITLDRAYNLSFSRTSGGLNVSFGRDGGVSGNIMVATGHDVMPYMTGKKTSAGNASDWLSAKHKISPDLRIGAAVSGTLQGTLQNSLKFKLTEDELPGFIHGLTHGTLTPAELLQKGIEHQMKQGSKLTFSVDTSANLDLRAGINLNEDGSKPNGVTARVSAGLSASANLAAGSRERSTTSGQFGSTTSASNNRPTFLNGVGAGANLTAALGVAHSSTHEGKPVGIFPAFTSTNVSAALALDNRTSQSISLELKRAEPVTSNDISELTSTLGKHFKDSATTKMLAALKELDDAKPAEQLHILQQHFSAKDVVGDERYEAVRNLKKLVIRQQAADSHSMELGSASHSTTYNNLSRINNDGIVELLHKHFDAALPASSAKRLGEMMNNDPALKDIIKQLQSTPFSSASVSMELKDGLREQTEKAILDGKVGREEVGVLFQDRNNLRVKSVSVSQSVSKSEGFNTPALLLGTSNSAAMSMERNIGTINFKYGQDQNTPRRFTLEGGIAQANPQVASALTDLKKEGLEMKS
T2 sequence (Q887C9 whole entry): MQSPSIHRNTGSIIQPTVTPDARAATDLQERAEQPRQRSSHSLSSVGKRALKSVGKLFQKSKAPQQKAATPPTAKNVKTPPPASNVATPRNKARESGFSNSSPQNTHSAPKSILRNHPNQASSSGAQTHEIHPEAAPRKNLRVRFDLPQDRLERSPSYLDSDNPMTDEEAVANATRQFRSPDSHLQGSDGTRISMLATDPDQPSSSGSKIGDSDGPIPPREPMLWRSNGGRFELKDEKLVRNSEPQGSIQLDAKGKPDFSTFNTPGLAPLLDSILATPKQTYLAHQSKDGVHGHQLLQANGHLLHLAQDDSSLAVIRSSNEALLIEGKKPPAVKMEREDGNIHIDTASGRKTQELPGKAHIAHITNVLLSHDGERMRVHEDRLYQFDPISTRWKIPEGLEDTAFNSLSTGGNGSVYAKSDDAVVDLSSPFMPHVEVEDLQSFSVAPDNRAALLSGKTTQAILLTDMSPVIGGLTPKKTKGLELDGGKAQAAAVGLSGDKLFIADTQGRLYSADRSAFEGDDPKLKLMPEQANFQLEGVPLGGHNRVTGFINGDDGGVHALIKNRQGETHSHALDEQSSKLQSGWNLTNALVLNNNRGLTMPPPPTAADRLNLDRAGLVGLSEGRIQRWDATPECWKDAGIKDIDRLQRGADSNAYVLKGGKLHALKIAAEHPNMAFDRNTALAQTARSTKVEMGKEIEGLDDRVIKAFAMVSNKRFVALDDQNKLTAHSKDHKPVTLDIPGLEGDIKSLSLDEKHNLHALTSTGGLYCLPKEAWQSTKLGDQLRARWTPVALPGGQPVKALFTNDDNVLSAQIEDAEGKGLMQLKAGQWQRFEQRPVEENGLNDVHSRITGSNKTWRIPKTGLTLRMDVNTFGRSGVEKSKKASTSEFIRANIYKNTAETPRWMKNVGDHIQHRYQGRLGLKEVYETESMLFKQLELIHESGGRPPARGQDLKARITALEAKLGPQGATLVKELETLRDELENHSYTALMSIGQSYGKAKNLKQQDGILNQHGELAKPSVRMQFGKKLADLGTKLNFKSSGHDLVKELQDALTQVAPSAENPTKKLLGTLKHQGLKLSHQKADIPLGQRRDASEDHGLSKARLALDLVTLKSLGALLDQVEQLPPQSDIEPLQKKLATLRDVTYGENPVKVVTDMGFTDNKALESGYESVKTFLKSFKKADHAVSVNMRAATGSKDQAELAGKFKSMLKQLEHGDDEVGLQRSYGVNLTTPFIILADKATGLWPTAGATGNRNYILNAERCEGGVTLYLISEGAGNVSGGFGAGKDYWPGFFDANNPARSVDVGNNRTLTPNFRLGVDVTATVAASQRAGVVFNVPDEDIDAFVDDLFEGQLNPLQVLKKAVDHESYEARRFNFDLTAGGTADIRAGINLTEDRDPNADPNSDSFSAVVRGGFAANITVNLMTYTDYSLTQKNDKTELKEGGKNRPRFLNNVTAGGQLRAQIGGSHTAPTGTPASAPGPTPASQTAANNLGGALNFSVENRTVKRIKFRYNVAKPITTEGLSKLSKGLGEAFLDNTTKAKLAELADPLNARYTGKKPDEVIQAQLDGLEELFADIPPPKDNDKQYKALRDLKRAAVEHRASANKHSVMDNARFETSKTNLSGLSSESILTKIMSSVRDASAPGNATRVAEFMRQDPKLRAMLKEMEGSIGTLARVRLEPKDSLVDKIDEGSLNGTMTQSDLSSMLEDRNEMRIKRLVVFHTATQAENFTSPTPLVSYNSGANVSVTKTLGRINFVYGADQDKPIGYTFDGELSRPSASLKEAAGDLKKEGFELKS

Row | Compound | % inhibition at 10 mM [1] [%] | % inhibition at 10 mM [2] [%] | IC50 [3] [µM] | oocyte fluorescent dye uptake [4]
1 | PAMAM G1 | 71 | 93 | 31 | 
2 | O=C1OC2(c3ccc(O)cc3Oc3cc(O)ccc32)c2ccccc21 [fluorescein] |  |  |  | fluorescein entered oocytes expressing DspE or AvrE, whereas eGFP could not
3 | PAMAM G0 | 68 |  |  | 
